For the assay, the target named is Influenza PB2 (Influenza A virus, UniProt P03428). In words: biochemical. In kind it is binding. Conditions: read-out: Influenza PB2 affinity, IC50.
Chain of Influenza PB2 (P03428 whole entry, looked up): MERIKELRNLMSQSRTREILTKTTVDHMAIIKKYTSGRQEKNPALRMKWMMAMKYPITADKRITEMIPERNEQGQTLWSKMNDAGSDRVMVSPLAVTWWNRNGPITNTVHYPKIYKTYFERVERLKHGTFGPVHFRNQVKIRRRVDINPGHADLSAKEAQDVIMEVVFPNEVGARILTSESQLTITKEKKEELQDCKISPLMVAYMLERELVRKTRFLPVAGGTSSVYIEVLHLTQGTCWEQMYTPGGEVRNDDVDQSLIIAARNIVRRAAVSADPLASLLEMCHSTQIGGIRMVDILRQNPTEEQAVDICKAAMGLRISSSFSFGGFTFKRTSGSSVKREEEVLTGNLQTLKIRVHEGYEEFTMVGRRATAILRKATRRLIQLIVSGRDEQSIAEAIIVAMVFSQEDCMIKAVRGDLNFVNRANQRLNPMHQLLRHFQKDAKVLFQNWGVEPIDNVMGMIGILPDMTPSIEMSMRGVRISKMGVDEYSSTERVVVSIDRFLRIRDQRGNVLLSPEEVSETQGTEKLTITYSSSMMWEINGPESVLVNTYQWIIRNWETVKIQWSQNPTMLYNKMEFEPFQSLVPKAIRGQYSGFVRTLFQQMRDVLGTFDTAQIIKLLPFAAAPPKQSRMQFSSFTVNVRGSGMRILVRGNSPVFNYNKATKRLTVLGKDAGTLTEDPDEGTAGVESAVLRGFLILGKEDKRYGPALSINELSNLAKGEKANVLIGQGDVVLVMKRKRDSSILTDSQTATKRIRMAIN
As a reminder, the IC50 is the concentration at which inhibition is half-maximal. Regarding `CCOC(=O)[C@@H]1C2CCC(CC2)[C@H]1n1ccc2ccc(-c3c[nH]c4ncc(F)cc34)nc21` [Compound B199], the IC50 was 10 to 100 µM.

Turning to `COC(=O)[C@@H]1C2CCC(CC2)[C@H]1n1ccc2ccc(-c3c[nH]c4ncc(Cl)cc34)cc21` [Compound B200], the IC50 lay within 10 to 100 µM.

`CCOC(=O)[C@@H]1C2CCC(CC2)[C@H]1n1cc(CCCCSC)c2cnc(-c3c[nH]c4ncc(F)cc34)nc21` [Compound B201]: the IC50 is above 100 µM.

With `CCOC(=O)[C@@H]1C2CCC(CC2)[C@H]1n1cc(CCCCC#N)c2cnc(-c3c[nH]c4ncc(F)cc34)nc21` [Compound B202], the concentration for half-maximal inhibition (IC50) is above 100 µM.

For `CCOC(=O)[C@@H]1C2CCC(CC2)[C@H]1n1cc(C#CCCC#N)c2cnc(-c3c[nH]c4ncc(F)cc34)nc21` [Compound B203], the IC50 was in the range of 10 to 100 µM.

`CN(C)C(=O)c1cn([C@@H]2C3CCC(CC3)[C@H]2C(=O)O)c2nc(-c3c[nH]c4ncc(Cl)cc34)ncc12` [Compound B204]: the IC50 was below 1 µM.

In the case of `O=C(O)[C@@H]1C2CCC(CC2)[C@H]1n1ccc2ccc(-c3c[nH]c4ncc(F)cc34)nc21` [Compound B205], the IC50 was 1 to 10 µM.

`O=C(O)[C@@H]1C2CCC(CC2)[C@H]1n1ccc2ccc(-c3c[nH]c4ncc(Cl)cc34)cc21` [Compound B206]: the half-inhibitory concentration (IC50) lay in the range of 1 to 10 µM.

Take `CCOC(=O)c1cn([C@@H]2C3CCC(CC3)[C@H]2C(=O)O)c2nc(-c3c[nH]c4ncc(Cl)cc34)ncc12` [Compound B207]: the IC50 was below 1 µM.

On to `O=C(O)[C@@H]1C2CCC(CC2)[C@H]1n1ccc2cnc(-c3c[nH]c4ncc(F)cc34)cc21` [Compound B208], for which the IC50 lay in the range of 1 to 10 µM.

As to `O=CC1=C(n2cc(F)c3cnc(-c4c[nH]c5ncc(Cl)cc45)nc32)C2CCC1CC2` [Compound B209], the IC50 lay within 1 to 10 µM.

In the case of `C=Cc1cnc2[nH]cc(-c3ncc4c(F)cn([C@@H]5C6CCC(CC6)[C@H]5C(=O)O)c4n3)c2c1` [Compound B210], the IC50 is 1 to 10 µM.

`O=C(O)C1=C(n2cc(F)c3cnc(-c4c[nH]c5ncc(Cl)cc45)nc32)C2CCC1CC2` [Compound B213]: the IC50 is below 1 µM.

With `N#Cc1cnc2[nH]cc(-c3ncc4c(F)cn([C@@H]5C6CCC(CC6)[C@H]5C(=O)O)c4n3)c2c1` [Compound B214], the half-maximal inhibitory concentration (IC50) is 1 to 10 µM.

Take `CCOC(=O)[C@@H]1C2CCC(CC2)[C@H]1n1cc(F)c2cnc(-c3c[nH]c4ncc(C#N)cc34)nc21` [Compound B215]: the IC50 was above 100 µM.

`O=C(O)[C@@H]1C2CCC(CC2)[C@H]1n1cc(F)c2cnc(-c3c[nH]c4ncc(C(F)(F)F)cc34)nc21` [Compound B216]: the IC50 lay within 1 to 10 µM.

For `CCOC(=O)[C@@H]1C2CCC(CC2)[C@H]1n1cc(F)c2cnc(-c3c[nH]c4ncc(C(F)(F)F)cc34)nc21` [Compound B217], the IC50 was above 100 µM.

Take `N#Cc1cnc2[nH]cc(-c3ncc4c(Cl)cn([C@@H]5C6CCC(CC6)[C@H]5C(=O)O)c4n3)c2c1` [Compound B218]: the IC50 was above 100 µM.

With `CCOC(=O)[C@@H]1C2CCC(CC2)[C@H]1n1cc(Cl)c2cnc(-c3c[nH]c4ncc(C#N)cc34)nc21` [Compound B219], the IC50 is above 100 µM.

In the case of `N#Cc1cnccc1-c1cn([C@@H]2C3CCC(CC3)[C@H]2C(=O)O)c2nc(-c3c[nH]c4ncc(Cl)cc34)ncc12` [Compound B220], the IC50 lay within 10 to 100 µM.

As to `CNC(=O)C1=C(n2cc(F)c3cnc(-c4c[nH]c5ncc(Cl)cc45)nc32)C2CCC1CC2` [Compound B221], the IC50 was 1 to 10 µM.

Consider `O=C(O)C1=C(n2cc(F)c3cnc(-c4c[nH]c5ncc(F)cc45)nc32)C2CCC1CC2` [Compound B222], for which the IC50 was below 1 µM.

On to `CN(C)C(=O)Cn1cc(-c2c[nH]c3ncc(F)cc23)c2cncnc21` [Compound C1], for which the IC50 fell in the range of 10 to 100 µM.

Consider `CN(C)C(=O)CCn1cc(-c2c[nH]c3ncc(F)cc23)c2cncnc21` [Compound C2], for which the IC50 is above 100 µM.

Turning to `COC(=O)CCn1cc(-c2c[nH]c3ncc(F)cc23)c2cncnc21` [Compound C3], the half-inhibitory concentration (IC50) is above 100 µM.

With `O=C(O)Cn1cc(-c2c[nH]c3ncc(F)cc23)c2cncnc21` [Compound C4], the IC50 is above 100 µM.

As to `O=C(O)CCn1cc(-c2c[nH]c3ncc(F)cc23)c2cncnc21` [Compound C5], the IC50 is above 100 µM.

With `CC(Cn1cc(-c2c[nH]c3ncc(F)cc23)c2cncnc21)C(=O)N(C)C` (stereo not drawn) [Compound C6], the half-inhibitory concentration (IC50) was in the range of 10 to 100 µM.

As to `CC(Cn1cc(-c2c[nH]c3ncc(F)cc23)c2cncnc21)C(=O)O` (stereo not drawn) [Compound C7], the IC50 fell in the range of 10 to 100 µM.

For the compound `CC(CC(=O)O)n1cc(-c2c[nH]c3ncc(F)cc23)c2cncnc21` (stereo not drawn) [Compound C8], the IC50 lay in the range of 10 to 100 µM.

`CNC(=O)Cn1cc(-c2c[nH]c3ncc(F)cc23)c2cncnc21` [Compound C9]: the IC50 was 10 to 100 µM.

`CC(C(=O)O)n1cc(-c2c[nH]c3ncc(F)cc23)c2cncnc21` (stereo not drawn) [Compound C10]: the IC50 was above 100 µM.

Regarding `CNC(=O)CCn1cc(-c2c[nH]c3ncc(F)cc23)c2cncnc21` [Compound C11], the IC50 was above 100 µM.

For `CC(=O)NCCn1cc(-c2c[nH]c3ncc(F)cc23)c2cncnc21` [Compound C12], the IC50 was above 100 µM.

`CC(C)(C)OC(=O)NCCn1cc(-c2c[nH]c3ncc(F)cc23)c2cncnc21` [Compound C13]: the IC50 was above 100 µM.

With `CNC(=O)NCCn1cc(-c2c[nH]c3ncc(F)cc23)c2cncnc21` [Compound C14], the IC50 was above 100 µM.

In the case of `COC(=O)NCCn1cc(-c2c[nH]c3ncc(F)cc23)c2cncnc21` [Compound C15], the IC50 was above 100 µM.

On to `CN(C)C(=O)NCCn1cc(-c2c[nH]c3ncc(F)cc23)c2cncnc21` [Compound C16], for which the IC50 is above 100 µM.

Consider `CCOC(=O)C(C)Cn1cc(-c2c[nH]c3ncc(F)cc23)c2cncnc21` (stereo not drawn) [Compound C17], for which the IC50 was above 100 µM.

The record behind these values is patent publication US11014941B2, “Pyrrolopyrimidine derivatives useful as inhibitors of influenza virus replication” (priority 2017, dated 2021).
